The results in this text go back to patent US20250169496A1, “USE OF 2-AMINO-3-HYDROXY-3-METHYLBUTYRIC ACID AND/OR 2-AMINO-3-(4-HYDROXYPHENYL) BUTYRIC ACID” (NANJING TIANNONG BIOTECHNOLOGY CO., LTD., priority 2021, published 2025).

Test [1] relates to tomato spotted wilt virus (TSWV). Nature of the test: Induced resistance of tobacco to infection of tomato spotted wilt virus. In kind it is in vivo, Nicotiana benthamiana. The conditions noted are these: for Viral protein content: tobacco leaves 3 d after inoculation, Western blot grayscale, relative. As to the method:
Obtain the tomato spotted wilt virus from Yunnan Province, China, store the initial virus source in a −80° C. refrigerator, activate the virus by inoculating it by friction inoculation on Nicotiana benthamiana leaves, extract viral plasmids, transform them by Escherichia coli competent cells, spread them onto a resistant plate for culture, pick a single colony for PCR screening, select positive colonies for sequencing and subsequent plasmid extraction, add the plasmids with normal sequencing to agrobacterium competent cells, transform the agrobacterium by the electric shock method, spread the transformed agrobacterium solution on the corresponding resistance screening plate, and culture it at 28° C.(±1) for 48 h. Pick a single agrobacterium colony on the transformation plate, place it in 5 mL of LB medium with the corresponding resistance and culture it at 28° C. and 180 rpm overnight. Centrifuge at 6,000 rpm for 2 min, collect the bacteria, suspend the bacteria with a treatment buffer (10 mM MgCl2, 10 mM MES, 10 μM Acetosyringone) until the OD600 of the suspension is 0.5, treat it at 28° C. in a dark place for 3 h and keep it for future use.
Take 2-amino-3-hydroxy-3-methylbutyric acid, dissolve it with distilled water, then dilute the solution with distilled water by gradient into 0 nM, 0.1 nM, 1 nM and 10 nM solutions. Sow Nicotiana benthamiana seeds in a small pot, and culture them at 24(±1)° C., 12 h/12 h illumination for 5 weeks. Select healthy tobacco plants (plants with 8-10 leaves are appropriate), spray 2-amino-3-hydroxy-3-methylbutyric acid solutions at the above concentrations on leaves and stems twice at an interval of 24 h. After 24 hours, suck an agrobacterium solution at a uniform concentration with a 1 mL syringe, press the injection port of the syringe directly on a small hole on the back of a tobacco leaf, and slowly push the bacterial solution into the hole so that the whole leaf is soaked. Culture the soaked tobacco at 24(±1)° C. 12 h/12 h illumination. Observe under a microscope after 3 d and make record; meanwhile, take a sample, analyze the grayscale of protein bands by using Western blot and Image J software, and determine the relative protein content of virus in leaves. Observe the morbidity of the tobacco leaves after 15 days, record the disease index with reference to GB/T 23222-2008 Grade and Investigation Method of Tobacco Diseases and Insect Pests. The formula is as follows: […]
Grading standard of tomato spotted wilt viruses (grading survey with plant as a unit): • Level 0: No disease in the whole plant; • Level 1: The shoot and leaf veins are clear or the leaves are slightly mottled, and the diseased plant is not dwarfed obviously; • Level 3: One third of the leaves are mottled, but the leaves are not deformed, or the plant is dwarfed to more than three quarters of the normal plant height; • Level 5: One third to a half of the leaves are mottled, or a minority of leaves are deformed, or the main veins turn black, or the plant is dwarfed to two thirds to three quarters of the normal plant height; • Level 7: A half to two thirds of the leaves are mottled, or deformed or a minority of major lateral veins are dead, or the plant is dwarfed to a half to two thirds of the normal plant height; • Level 9: The leaves of the whole plant are mottled, or seriously deformed or dead, or the diseased plant is dwarfed to […] of the normal plant height.

Test [2] concerns wheat powdery mildew. Put plainly: Induced resistance of wheat seedlings to powdery mildew (greenhouse pots). Type of test: in vivo, wheat (NAU0686). The conditions noted are these: for Relative immune effect: wheat powdery mildew; for Number of mycelia and conidium yield on wheat leaves: 10-10,000 nM, with the increase of concentration. The procedure: Take 2-amino-3-hydroxy-3-methylbutyric acid, dissolve it in distilled water, then dilute the solution with distilled water by gradient into 10 nM, 100 nM, 1,000 nM and 10,000 nM solutions, and set a blank control. Accelerate germination of wheat (NAU0686) seeds, then sow them in sterilized soil bowls, and culture them in a greenhouse of 23 (±1)° C. and 12 h illumination. Spray the 2-amino-3-hydroxy-3-methylbutyric acid solutions at the above concentrations to the stems and leaves of wheat seedlings when the seedlings have grown to have one leaf and one shoot, at an interval of 24 h and twice in total, evenly sprinkle fresh powdery wheat spores on the wheat leaves after 24 h, 3 pots each treatment, 20 plants per pot. Investigate the morbidity level of the wheat in each treatment after 10 d, record the morbidity level according to the wheat powdery mildew grading standard in the Pesticide—Guidelines for the Field Efficacy Trials(I) and calculate the disease index and relative immune effect by the calculation method same as that for the disease index and relative immune effect of tomato spotted wilt. Wheatpowdery mildew grading standard (with leaf as a unit): • Level 1: The area of the disease spots accounts for less than 5% of the whole leaf area; • Level 3: The area of the disease spots accounts for6%-15% of the whole leaf area; • Level 5: The area of the disease spots accounts for 16%-25% of the whole leaf area; • Level 7: The area of the disease spots accounts for26%-50% of the whole leaf area; • Level 9: The area of the disease spots accounts for more than 50% of the whole leaf area.

For test [3], the system named is tea under low-temperature stress. Nature of the test: Tea seedlings under low-temperature stress. In kind it is in vivo, tea (Baiye 1#). The conditions noted are these: for PIABS (photosynthetic performance index): tea seedlings after 24 h at −4° C.; for Cold damage index: tea seedlings, 24 h at −4° C., recovered 3 d; for Decrease of cold damage index / Increase of PIABS: 10,000 nM (so in the source), tea, low-temperature stress, vs 0 nM. As to the method:
The tea trees for test are cutting seedling Baiye 1#. Select tea seedlings with consistent growth, move them into plastic bowls with a diameter of 18 cm, put them in a greenhouse of 25° C. and RH 60%-70%, adapt to growth for about one week, and carry out the test. […] The spray treatment method is the same as the Arabidopsis treatment method in Embodiment 6, the time of low-temperature stress is 24 h, and the temperature is set at −4° C. Take out tea seedlings after stress, conduct dark treatment at room temperature for 30 min, then determine the chlorophyll fluorescence of leaves at the top of tea seedlings by plant efficiency Handy-PEA, then put them in a 25° C. greenhouse and recover them for 3 d, observe and calculate the cold damage condition and grade it. The statistics and grading standard of the cold damage index is shown in Table 12, the calculation formula is as follows and the results are as shown in Table 13. [formula] [table]

[4] abbreviates: 0.1 nM sprayed twice, tobacco 15 days after TSWV inoculation.
Where [5] appears, read: 1 nM sprayed twice, tobacco 15 days after TSWV inoculation.
Setting [6] is: concentration range 0.1-10 nM, tobacco, TSWV.

Turning to `CC(c1ccc(O)cc1)C(N)C(=O)O` (stereo not drawn) [2-amino-3-(4-hydroxyphenyl) butyric acid], the Disease index is recorded as 36.62 ± 0.87 b in test [1] (setting [4]), 29.83 ± 2.31 c in test [1] (setting [5]) and “lower than 50” in test [1] (setting [6]). Moreover, the Viral protein content was found to be 0.34 ± 0.004 b in test [1] (0.1 nM) and 0.28 ± 0.012 c in test [1] (1 nM). The Relative immune effect is given as 52.54% in test [1] (0.1 nM, tobacco, TSWV); 61.34% in test [1] (1 nM, tobacco, TSWV); 67.24% in test [1] (10 nM, tobacco, TSWV); “more than 50%” in test [1] (setting [6]); 20.17% in test [2] (10 nM); 34.92% in test [2] (100 nM). For the same compound, the Relative immune effect in test [2] (10,000 nM) came to 71.12%. The “Number of mycelia and conidium yield on wheat leaves” value in test [2] is given as “decreased significantly”. Moreover, the “PIABS (photosynthetic performance index)” value in test [3] (1 nM) is on record as 28.10 ± 3.10cd; in test [3] (10 nM), 31.94 ± 1.37bc; in test [3] (100 nM), 34.67 ± 3.27ab; in test [3] (1,000 nM), 38.56 ± 2.23a. Also, the Cold damage index in test [3] (1 nM) is reported as 60%; in test [3] (10 nM) it was 55%; in test [3] (100 nM), 35%; in test [3] (1,000 nM) it was 30%. In addition, in test [3], the “Decrease of cold damage index” value turned out to be 40%. For the same compound, the “Increase of PIABS” value in test [3] came to 90.8%.

On to `CC(C)(O)C(N)C(=O)O` (stereo not drawn) [2-amino-3-hydroxy-3-methylbutyric acid], for which the Disease index in test [1] (setting [4]) was 58.64 ± 2.31 b; in test [1] (setting [5]), 40.74 ± 3.02 c; in test [1] (setting [6]), “lower than 60”; in test [2] (concentration greater than or equal to 1,000 nM, susceptible wheat, powdery mildew), “lower than 50”. The Viral protein content came to 0.41 ± 0.029 b in test [1] (0.1 nM) and 0.30 ± 0.012 c in test [1] (1 nM). Also, the Relative immune effect is 34.48% in test [1] (0.1 nM, tobacco, TSWV); 54.48% in test [1] (1 nM, tobacco, TSWV); 67.59% in test [1] (10 nM, tobacco, TSWV); “more than 30%” in test [1] (setting [6]); 16.85% in test [2] (10 nM); 27.90% in test [2] (100 nM). Further, the Relative immune effect in test [2] (1,000 nM) stood at 47.24%; in test [2] (10,000 nM) it was 65.68%. Besides, in test [2], the “Number of mycelia and conidium yield on wheat leaves” value is “decreased significantly”. Further, the “PIABS (photosynthetic performance index)” value in test [3] (10 nM) is reported as 28.35 ± 1.66c; in test [3] (100 nM) it was 30.67 ± 2.07bc; in test [3] (1,000 nM), 35.23 ± 1.96b; in test [3] (10,000 nM), 40.16 ± 2.15a. Also, the Cold damage index in test [3] (10 nM) worked out at 65%; in test [3] (100 nM), 45%; in test [3] (1,000 nM), 30%; in test [3] (10,000 nM), 15%. Further, the “Decrease of cold damage index” value in test [3] was 60%. Moreover, in test [3], the “Increase of PIABS” value came out at 73%.
